The supplement of paper PMC13380429

Tests used:
Settings in all cases: 72 h
HepG2 [1] = test: relative viability EC50 (midpoint between 100% and the lowest measured viability); higher = less toxic
Calu-3 [2] = test: as above
Vero E6 [3] = test: as above
HepG2 [4] = test: cell viability relative to DMSO; higher = less toxic
Caco-2 [5] = test: as above
U2OS [6] = test: as above
Calu-3 [7] = test: as above
Vero E6 [8] = test: as above
HepG2 [9] = test: drug sensitivity score (DSS) for viability; higher = more toxic; extreme values may be limits of the assay
Caco-2 [10] = test: as above
U2OS [11] = test: as above
Calu-3 [12] = test: as above
Vero E6 [13] = test: as above
U2OS [14] = test: relative viability EC50 (midpoint between 100% and the lowest measured viability); higher = less toxic
Caco-2 [15] = test: as above

Row | Compound | relative viability EC50 (HepG2 [1]) [nM] | relative viability EC50 (Calu-3 [2]) [µM] | relative viability EC50 (Vero E6 [3]) [µM] | cell viability (HepG2 [4]; 1 nM) [%] | cell viability (HepG2 [4]; 10 nM) [%] | cell viability (HepG2 [4]; 100 nM) [%] | cell viability (HepG2 [4]; 1000 nM) [%] | cell viability (HepG2 [4]; 10000 nM) [%] | cell viability (Caco-2 [5]; 1 nM) [%] | cell viability (Caco-2 [5]; 10 nM) [%] | cell viability (Caco-2 [5]; 100 nM) [%] | cell viability (Caco-2 [5]; 1000 nM) [%] | cell viability (Caco-2 [5]; 10000 nM) [%] | cell viability (U2OS [6]; 1 nM) [%] | cell viability (U2OS [6]; 10 nM) [%] | cell viability (U2OS [6]; 100 nM) [%] | cell viability (U2OS [6]; 1000 nM) [%] | cell viability (U2OS [6]; 10000 nM) [%] | cell viability (Calu-3 [7]; 1 nM) [%] | cell viability (Calu-3 [7]; 10 nM) [%] | cell viability (Calu-3 [7]; 100 nM) [%] | cell viability (Calu-3 [7]; 1000 nM) [%] | cell viability (Calu-3 [7]; 10000 nM) [%] | cell viability (Vero E6 [8]; 1 nM) [%] | cell viability (Vero E6 [8]; 10 nM) [%] | cell viability (Vero E6 [8]; 100 nM) [%] | cell viability (Vero E6 [8]; 1000 nM) [%] | cell viability (Vero E6 [8]; 10000 nM) [%] | drug sensitivity score (HepG2 [9]) | drug sensitivity score (Caco-2 [10]) | drug sensitivity score (U2OS [11]) | drug sensitivity score (Calu-3 [12]) | drug sensitivity score (Vero E6 [13]) | relative viability EC50 (U2OS [14]) [µM] | relative viability EC50 (Caco-2 [15]) [µM]
1 | O=C1C2CCN(CC2)C1(CO)CO [PRIMA1] | > 10000 | > 10 | > 10 | 94.5 | 97.6 | 81 | 97.9 | 104 | 95.1 | 91.6 | 102 | 96.3 | 66.9 | 98.8 | 95.7 | 101 | 98.1 | 70 | 105 | 99 | 103 | 87.6 | 95.7 | 87 | 92.6 | 89.6 | 94.2 | 99.5 | 0 | 2.1 | 1.6 | 0.6 | 0 |  | 
2 | O=C(Nc1cccc(Cl)c1)Nc1ncc(CCNc2ncnc3ccsc23)s1 [SNS-314] | 315 |  | > 10 | 92.8 | 96.8 | 76.3 | 67.5 | 41.6 | 92.8 | 99 | 90.4 | 85.8 | 69 | 98.5 | 102 | 88.2 | 90.4 | 74.8 |  |  |  |  |  | 103 | 103 | 86.3 | 89.9 | 93.2 | 9.2 | 2.9 | 1.9 |  | 1.8 |  | 
3 | CNC(=O)c1ccccc1Nc1cc(Nc2ccc(N3CCOCC3)cc2OC)ncc1C(F)(F)F [VS-4718] | 1120 |  |  | 98.6 | 93.2 | 99.1 | 65 | 19.3 | 102 | 91.8 | 96.4 | 82.5 | 62.5 | 98.5 | 94.2 | 95.2 | 82.1 | 35.1 | 108 | 97 | 86.4 | 68.3 | 74.5 | 103 | 101 | 85.8 | 69.2 | 54.4 | 9 | 3.6 | 6.2 | 6.6 | 7 | 1.5 | 
4 | O=C(CC(c1ccccc1)c1ccccc1)N1CCN(C(c2ccccc2)c2ccccc2)CC1 [Z160] |  | > 10 | > 10 | 88.7 | 104 | 88.5 | 95.6 | 57.7 | 99.9 | 103 | 97.1 | 92.9 | 67.8 | 101 | 99 | 99.1 | 97.2 | 88.6 | 104 | 92.8 | 104 | 93.9 | 114 | 93.7 | 99.1 | 94.9 | 99.8 | 100 | 2.9 | 2.6 | 0.1 | 0 | 0 | > 10 | 
5 | C=CC(=O)Nc1cc2c(Nc3ccc(F)c(Cl)c3)ncnc2cc1OCCCN1CCOCC1 [canertinib] | > 10000 | 0.132 |  | 105 | 97.6 | 105 | 95.5 | 90.5 | 91.7 | 90.3 | 81.6 | 81.5 | 69.5 | 97.1 | 98.5 | 93.1 | 96.1 | 89.9 | 100 | 89.8 | 70.2 | 41.2 | 30.1 | 98.5 | 93.1 | 86.3 | 65.6 | 51 | 0 | 5.4 | 0 | 14.8 | 7.8 | > 10 | 
6 | CN(C)CCCC1(c2ccc(F)cc2)OCc2cc(C#N)ccc21 (stereo not drawn) [citalopram] |  |  |  |  |  |  |  |  |  |  |  |  |  |  |  |  |  |  |  |  |  |  |  |  |  |  |  |  | 0 |  | 0 | 0 | 0 |  | 
7 | C=C(c1ccccc1OCc1cccc(Cl)c1)n1ccnc1 [croconazole] | > 10000 | > 10 | > 10 | 102 | 101 | 102 | 110 | 88 | 102 | 104 | 90.9 | 87.8 | 69.6 | 96.2 | 104 | 93.2 | 103 | 90 | 94.4 | 104 | 97.5 | 93.1 | 92.1 | 102 | 97 | 112 | 107 | 105 | 0 | 2.5 | 0 | 0 | 0 | > 10 | 
8 | COc1ccc(-c2cc(=O)c3c(O)cc(O[C@@H]4O[C@H](CO[C@@H]5O[C@@H](C)[C@H](O)[C@@H](O)[C@H]5O)[C@@H](O)[C@H](O)[C@H]4O)cc3o2)cc1O [diosmin] |  |  |  |  |  |  |  |  |  |  |  |  |  |  |  |  |  |  |  |  |  |  |  |  |  |  |  |  | 0 |  | 0 | 0 | 0 |  | 
9 | CN1CCN(c2ccc3nc(-c4c(N)c5c(F)cccc5[nH]c4=O)[nH]c3c2)CC1 [dovitinib] | 924 | > 10 | 0.794 | 115 | 96.8 | 102 | 60.8 | 28.8 | 98.4 | 101 | 87.5 | 85.7 | 61.8 | 99 | 99.5 | 93.5 | 97.8 | 42.3 | 93.8 | 97.7 | 98.6 | 93.7 | 81.9 | 97.4 | 96.5 | 99.6 | 63.2 | 42.1 | 8.7 | 3.6 | 3.4 | 0.9 | 7.5 | 2.88 | 
10 | C[C@H]1O[C@@H](n2cc(F)c(=O)[nH]c2=O)[C@H](O)[C@@H]1O [doxifluridine] |  | > 10 | > 10 | 96.6 | 96.1 | 76.3 | 108 | 56.6 | 82.5 | 106 | 93.3 | 99.3 | 65.6 | 99.9 | 99.4 | 100 | 101 | 90.6 | 98.6 | 116 | 91.3 | 98.9 | 90.9 | 108 | 96.1 | 103 | 105 | 87.5 | 1.8 | 1.7 | 0 | 0 | 0 | > 10 | 
11 | CCN1CCN(c2cc3c(cc2F)c(=O)c(C(=O)O)cn3C2CC2)CC1 [enrofloxacin] |  |  |  |  |  |  |  |  |  |  |  |  |  |  |  |  |  |  |  |  |  |  |  |  |  |  |  |  | 0 |  | 0 | 0 | 0 |  | 
12 | Oc1ccc([C@H]2COc3cc(O)ccc3C2)cc1 [equol] | > 10000 | > 10 | > 10 | 94.2 | 105 | 110 | 94.8 | 97.3 |  |  |  |  |  | 98.5 | 103 | 97.9 | 102 | 99.6 | 97.2 | 111 | 99.2 | 92.6 | 91.2 | 98.6 | 102 | 96.2 | 95.5 | 96.6 | 0 |  | 0 | 0 | 0 | > 10 | 
13 | COC(=O)Nc1nc2cc(C(=O)c3ccc(F)cc3)ccc2[nH]1 [flubendazole] | 619 |  | 1.38 | 96.8 | 95.7 | 92.4 | 63.4 | 40.4 | 93 | 96.7 | 101 | 87.3 | 54.6 | 98.2 | 107 | 102 | 95.4 | 54.6 | 94.2 | 87.9 | 98.8 | 97.6 | 72.3 | 94.9 | 102 | 92.4 | 79 | 41.8 | 7.9 | 4.3 | 3.1 | 1.5 | 5.5 |  | 
14 | Cc1cnc(C(=O)NCCc2ccc(S(=O)(=O)NC(=O)NC3CCCCC3)cc2)cn1 [glipizide] |  |  |  |  |  |  |  |  |  |  |  |  |  |  |  |  |  |  |  |  |  |  |  |  |  |  |  |  | 0 |  | 0 | 0 | 0 |  | 
15 | c1coc(CNc2ncnc3[nH]cnc23)c1 [kinetin] | > 10000 | > 10 |  | 110 | 108 | 99 | 98.7 | 109 | 111 | 104 | 106 | 98.9 | 96.6 |  |  |  |  |  | 95.7 | 100 | 101 | 98.4 | 99.3 |  |  |  |  |  | 0 | 0 |  | 0 |  |  | > 10
16 | Cc1ccc(NC(=O)C2(c3ccc4c(c3)OC(F)(F)O4)CC2)nc1-c1cccc(C(=O)O)c1 [lumacaftor] |  | > 10 |  |  |  |  |  |  | 106 | 103 | 106 | 92.3 | 93.8 |  |  |  |  |  | 113 | 103 | 101 | 98.6 | 108 |  |  |  |  |  |  | 0 |  | 0 |  |  | > 10
17 | CN1CCN(c2c(F)cc3c(=O)c(C(=O)O)cn4c3c2SCC4)CC1 [rufloxacin] | > 10000 | > 10 | > 10 | 98.9 | 99.5 | 104 | 103 | 92.2 | 95.1 | 105 | 93.9 | 91.7 | 73.8 | 99.8 | 100 | 94.7 | 104 | 96.8 | 92.1 | 103 | 97.5 | 84.4 | 101 | 99.9 | 101 | 96.4 | 101 | 95.7 | 0 | 1.7 | 0 | 0 | 0 | > 10 | 
18 | CC(=O)c1ccc2c(c1)C(=O)C1(CC1)O2 [spizofurone] |  |  |  |  |  |  |  |  |  |  |  |  |  |  |  |  |  |  |  |  |  |  |  |  |  |  |  |  | 0 |  | 0 | 0 | 0 |  | 
19 | COc1ccc(-n2nc(CCC(=O)N(C)O)cc2-c2ccc(Cl)cc2)cc1 [tepoxalin] |  | > 10 |  | 107 | 106 | 96.4 | 96.6 | 73.8 | 103 | 112 | 116 | 99.4 | 59.8 | 97.1 | 95.7 | 96.7 | 94.6 | 61.8 | 97.5 | 110 | 102 | 106 | 110 | 98.2 | 99.9 | 99.5 | 99.9 | 64.7 | 1.6 | 2.1 | 2.8 | 0 | 1.7 |  | 
